Data on seven compounds can be found in patent US10780092B2, “Fused pyrazine derivatives useful as soluble guanylate cyclase stimulators” (Merck Sharp & Dohme Corp., priority 2016, dated 2020).

As usually defined, the Ki is the dissociation constant of the complex between target and ligand, obtained from inhibition or displacement.

Experiment [1] deals with sGC α1/β1 heterodimer (Homo sapiens (Human), UniProt Q02108+Q02153). The experiment can be described thus: Cell-based sGC functional assay (CASA assay), cGMP by HTRF. The conditions noted are these: CHO-K1/sGC cells; for Emax: CHO-K1, cGMP production as percentage of maximum of compound A (set to 100%), read-out: % Activation; for EC50: inflection point of cGMP production, 4P fit, read-out: IP. An excerpt:
Cell-Based sGC Functional Assay (Cyclic GMP Assay for sGC Activator: CASA Assay)
Soluble guanylate cyclase (sGC) is a heme-containing enzyme that converts GTP to secondary messenger cGMP. Increases in cGMP levels affect several physiological processes including vasorelaxation through multiple downstream pathways. […] Heme-dependent activators (HDAs) preferentially target sGC containing a ferrous heme group. To determine the effect of sGC activators on enzyme activity, the CASA assay was developed to monitor the generation of cGMP in a cell line that stably expresses the heterodimeric sGC protein.
A CHO-K1 cell line stably expressing the sGC α1/β1 heterodimer was generated using a standard transfection protocol. The cDNA's encoding human sGC α1 and β1 were cloned in pIRES hyg and pIRES neo respectively using standard molecular biology techniques. The plasmids pIRES hyg and pIRES neo plasmids were obtained from Clontech. CHO-K1 cells were transfected with plasmids pIREShyg-hsGCα1 and pIRESneo-hsGCβ1 simultaneously using FUGENE reagent. Clones that stably express both subunits were selected with hygromycin and neomycin for ˜2 weeks. The clone chosen for the assay was designated CHO-K1/sGC. CHO-K1/sGC cells were maintained in F-K12 medium containing 10% heat-inactivated Fetal Bovine Serum (FBS), 100 μg/mL penicillin/streptomycin, 0.5 mg/mL hygromycin and 0.25 mg/mL G418. The cells were then cryopreserved in liquid nitrogen. On the day of the assay, the cells were thawed and resuspended in EBSS Assay Buffer (Sigma, E3024) supplemented with 5 mM MgCl2, 10 mM HEPES (4-(2-hydroxyethyl)piperazine-1-ethanesulfonic acid) and 0.05% BSA (bovine serum albumin) and cell density was then adjusted to 2.25×10^5/mL with EAB. IBMX (3-isobutyl-1-methylxanthin, 0.5 mM) was added to inhibit degradation of cGMP. Compounds were diluted from DMSO stock solutions and added to the assay at a final DMSO concentration of 2.5%. Cells were pre-incubated in the presence and absence of 1 μM of Diethylenetriamine/nitric oxide adduct (DETA-NO; Sigma, 17018) for 30 min at 25° C. Compounds were subsequently added and incubated for 1 hr at 37° C. At the end of the incubation period, the reaction was terminated and the cells were lysed with the detection reagents from Cisbio Kits. The level of intracellular cGMP was determined using an HTRF-based assay kit (CisBio, 62GM2PEC), which detects the displacement of a fluorescence labeled cGMP from its specific antibody. The cGMP produced by test compounds was directly compared to the maximum cGMP production (this value was set to equal 100% activation) of the published sGC compound A (Example 1 in WO 2010/065275, published Jun. 10, 2010).
The test compounds' activities were then expressed as a percentage of compound A, the standard in every experiment. This percent activation was calculated either in the presence or absence of DETA-NO which was then plotted. Inflection points (IP) and maximum fold induction was derived using Abase analysis software for 4P fit.
Background: Time-resolved FRET reads energy transfer from a long-lived donor to a nearby acceptor.

Experiment [2] has as its target human recombinant sGC enzyme (Homo sapiens (Human), UniProt Q02108+Q02153). The experiment can be described thus: SEC competition binding assay with [3H] Compound B radioligand. The settings on record: displacement of 1.6 nM [3H] Compound B, 24 h at 37° C. The procedure: The binding potencies of sGC compounds to the human recombinant sGC enzyme were determined in a Size Exclusion Chromatography (SEC) competition binding assay using [^3H] Compound B as the radioligand. [^3H] Compound B was prepared using a standardardized tritium exchange procedure. The parent (non-labeled) molecule was first iodinated then a Pd-catalyzed iodine to tritium exchange provided the labeled compound.
Method: The binding buffer was composed of 50 mM triethanolamine pH 7.4, 3 mM MgCl2, 0.025% BSA, 2 mM dithiothreitol (DTT), 300 μM DETA/NO and 400 μM GTP. Assays were conducted in 96-well plates in a total volume of 200 μL. Recombinant human sGC protein (40 ng) was incubated with 1.6 nM [^3H] Compound B for 24 h at 37° C. in the presence and absence of various concentrations of sGC testing compounds delivered as DMSO solutions to give a total of 1% organic solvent content. Non-specific binding was defined by competition with 1 μM of Compound B. After the incubation period, the binding mixtures were loaded onto the gel-filtration plate (ThermoFischer Cat. No. 89808) pre-equilibrated with binding buffer and spun at 1000×g for 3 min at 4° C. on a Bench top centrifuge. The collected eluates in White Frame Clear Well Isoplates (Perkin Elmer Cat #6005040) received 100 μl of UltimaGold scintillation cocktail. The sealed plates were shaken vigorously and span, and counted after 6 hs with a Wallac Microbeta TriLux 1450 LSC & Luminescence Counter (Perkin Elmer). Data from competition experiments were analyzed to determine Ki values using one site—fit Ki equation.

Regarding `CC1(c2ccc(Cl)c(O)c2)C(=O)Nc2nc(-c3cn4c(N)cnc4c(Cc4cccc(F)c4)n3)nc(N)c21` (stereo not drawn) [Example 140-A, 4-Amino-2-(3-amino-8-[(3-fluorophenyl)methyl]imidazo[1,2-a]pyrazin-6-yl)-5-(4-chloro-3-hydroxyphenyl)-5-methyl-5,7-dihydro-6H-pyrrolo[2,3-d]pyrimidin-6-one], in experiment [1], the Emax came to 101% and the EC50 came out at 816 nM. In addition, the Ki in experiment [2] was 0.827 nM.

As for `CC1(c2ccc(Cl)c(O)c2)C(=O)Nc2nc(-c3cn4ncnc4c(CCC(F)(F)C(F)(F)F)n3)nc(N3CCC(C(F)(F)F)CC3)c21` (stereo not drawn) [Example 137-A, 5-(4-Chloro-3-hydroxy-phenyl)-5-methyl-2-(8-(3,3,4,4,4-pentafluoro-butyl)-[1,2,4]triazolo-[1,5-a]pyrazin-6-yl)-4-(4-(trifluoromethyl)-piperidin-1-yl)-5,7-dihydro-6H-pyrrolo-[2,3-d]pyrimidin-6-one], in experiment [1], the Emax came out at 99% and the EC50 came out at 744 nM. In addition, the Ki in experiment [2] stood at 2.63 nM.

Turning to `CC1(c2ccc(Cl)c(O)c2)C(=O)Nc2nc(-c3cn4ccnc4c(Cc4c(F)cccc4F)n3)nc(N)c21` (stereo not drawn) [Example 90-A, 4-Amino-5-(4-chloro-3-hydroxyphenyl)-2-{8-[(2,6-difluorophenyl)methyl]imidazo[1,2-a]pyrazin-6-yl}-5-methyl-5,7-dihydro-6H-pyrrolo[2,3-d]pyrimidin-6-one], in experiment [1], the Emax is 138% and the EC50 stood at 94 nM. Besides, the inhibition constant Ki in experiment [2] was 2.43 nM.

For the compound `CC1(c2ccc(O)c(F)c2)C(=O)Nc2nc(-c3cn4ccnc4c(CCC(F)(F)C(F)(F)F)n3)nc(N3CC(O)(C(F)(F)F)C3)c21` (stereo not drawn) [Example 130-A, 5-(3-Fluoro-4-hydroxyphenyl)-4-(3-hydroxy-3-(trifluoromethyl)azetidin-1-yl)-5-methyl-2-(8-(3,3,4,4,4-pentafluorobutyl)imidazo[1,2-a]pyrazin-6-yl)-5,7-dihydro-6H-pyrrolo[2,3-d]pyrimidin-6-one], in experiment [1], the Emax was 81% and the EC50 was 1920 nM. In addition, the Ki in experiment [2] was found to be 7.15 nM.

Take `CC1(c2ccc(Cl)c(O)c2)C(=O)Nc2nc(-c3cn4ncnc4c(CCC(F)(F)C(F)(F)F)n3)nc(NCC(O)C(F)(F)F)c21` (single isomer, unassigned) [Example 133-AB, 5-(4-Chloro-3-hydroxy-phenyl)-5-methyl-2-(8-(3,3,4,4,4-pentafluoro-butyl)-[1,2,4]triazolo-[1,5-a]pyrazin-6-yl)-4-[(3,3,3-trifluoro-2-hydroxypropyl)amino]-5,7-dihydro-6H-pyrrolo-[2,3-d]pyrimidin-6-one]: the “% Activation” value in experiment [1] (cGMP production as percentage of maximum of compound A (set to 100%)) is 48%. Moreover, in experiment [1], the EC50 was 3380 nM. The inhibition constant Ki in experiment [2] was found to be 9.24 nM.

As for `CC1(c2ccc(Cl)c(O)c2)C(=O)Nc2nc(-c3cn4ccnc4c(Cc4cccc(F)c4)n3)nc(NCC(O)C(F)(F)F)c21` (stereo not drawn) [Example 131-AA, 5-(4-Chloro-3-hydroxy-phenyl)-2-{8-[(3-fluoro-phenyl)methyl]imidazo-[1,2-a]pyrazin-6-yl}-5-methyl-4-[(3,3,3-trifluoro-2-hydroxypropyl)amino]-5,7-dihydro-6H-pyrrolo-[2,3-d]pyrimidin-6-one], in experiment [1], the Emax is 89% and the EC50 stood at 427 nM. For the same compound, the Ki in experiment [2] turned out to be 0.884 nM.

Turning to `CC1(c2cc(O)c(C#N)c(F)c2)C(=O)Nc2nc(-c3cn4ncnc4c(Cc4cc(F)cc(F)c4)n3)nc(N)c21` (stereo not drawn) [Example 27-B, 4-(4-Amino-2-{8-[(3,5-difluorophenyl)methyl]-[1,2,4]triazolo[1,5-a]pyrazin-6-yl}-5-methyl-6-oxo-6,7-dihydro-5H-pyrrolo[2,3-d]pyrimidin-5-yl)-2-fluoro-6-hydroxybenzonitrile], in experiment [1], the Emax came out at 94% and the EC50 came to 489 nM. Besides, in experiment [2], the Ki is 0.28 nM.
